Measurements taken from US20230346744A1, “SULFUR-CONTAINING COMPOUND USEFUL FOR TREATING OR PREVENTING PRESBYOPIA” (SANTEN PHARMACEUTICAL CO., LTD., priority 2020, published 2023).

Legend:
Format in all cases: in vivo
C57BL/6J mice [1] = test: Pharmacological Test-3: once-daily instillation of Compounds 1, 2 and 3 for 2 weeks, lens elasticity; details: once per day for 14 days; for Lens elasticity improvement: 2.5 μL/eye, 8-month-old mice, vs vehicle control
Experimental: The effect of once-daily instillation of each of Compounds 1, 2 and 3 for 2 weeks on the lens elasticity was examined.
(§1) A vehicle comprising 1.0% (w/v) of CO35, 0.1% (w/v) of ethyl pyruvate, 0.269% (w/v) of sodium dihydrogenphosphate monohydrate (NaH2 PO4.H2O), 0.433% (w/v) of disodium hydrogenphosphate (Na2HPO4), 0.2% (w/v) of hydroxypropyl methylcellulose, 0.5% (w/v) of NaCl, and purified water (appropriate amount) was prepared.
Each of Compounds 1 and 2 was stirred with the addition of the vehicle to give a 0.1% (w/v) solution.
To Compound 3 was added the vehicle to give a 0.1% (w/v) suspension. The resulting 0.1% (w/v) suspension was diluted with the vehicle to give a 0.03% (w/v) solution. Further, the resulting 0.03% (w/v) solution was diluted with the vehicle to give a 0.01% (w/v) solution.
After preparation, all were frozen.
1) Each test sample (2.5 μL/eye) was instilled into both eyes of 8-month-old C57BL/6J mice with a Pipetman once per day (around 9:00) for 14 days.
(§2) 2) After the final instillation, the mice were euthanized by carbon dioxide inhalation, and then the eyeballs were extracted and rinsed with Hank's balanced salt solution (HBSS).
(§3) 3) The sclera near the optic nerve was cut with a razor, the lens was removed through the incision, and the removed lens was immersed in HBSS.
(§4) 4) The lens was placed on a glass slide, and an all-in-one fluorescence microscope BZ-9000 (Keyence) was used to capture an image of the lens (Image a).
(§5) 5) Next, one cover glass (Corning(registered trade mark) 22×22 mm Square) was placed on the lens, and an image in which the thickness of the lens changed due to the weight was similarly captured (Image b).
(§6) 6) A change in the lens diameter was calculated from Equation 1 wherein the lens diameter of Image a is subtracted from the lens diameter of Image b, as described below. Then, the lens elasticity improvement of each sample group compared with the vehicle control group was calculated from Equation 2 described below. The mean value of each group was based on 10 eyes.
(§7) Change in lens diameter=Lens diameter in Image b of each test sample−Lens diameter in Image a of each test sample Equation 1
(§8) Lens elasticity improvement of each sample group=Mean change in lens diameter of each Test sample group−Mean change in lens diameter of Vehicle control group Equation 2

C57BL/6J mice [2] = test: Pharmacological Test-4: once-daily instillation of Compounds 3 and 4 for 2 weeks, lens elasticity; details: once per day for 14 days; for Lens elasticity improvement: 2.5 μL/eye, 8-month-old mice, vs vehicle control
Experimental: The effect of once-daily instillation of each of Compounds 3 and 4 for 2 weeks on the lens elasticity was examined.
as §1
Compound 3 was stirred with the addition of the vehicle to give a 0.03% (w/v) suspension.
Compound 4 was stirred with the addition of the vehicle to give a 0.1% (w/v) suspension. The resulting 0.1% (w/v) suspension was diluted with the vehicle to give a 0.03% (w/v) suspension. Further, the resulting 0.03% (w/v) suspension was diluted with the vehicle to give a 0.01% (w/v) suspension.
(§9) After preparation, all were refrigerated.
1) Each test sample (2.5 μL/eye) was instilled into both eyes of 8-month-old
C57BL/6J mice with a Pipetman once per day (around 9:00) for 14 days.
as §2, §3, §4, §5, §6, §7, §8

C57BL/6J mice [3] = test: Pharmacological Test-5: once-daily instillation of Compounds 5, 6 and 7 for 2 weeks, lens elasticity; details: once per day for 14 days; for Lens elasticity improvement: 2.5 μL/eye, 8-month-old mice, vs vehicle control
Experimental: The effect of once-daily instillation of each of Compounds 5, 6, and 7 for 2 weeks on the lens elasticity was examined.
as §1
Compound 5 was stirred with the addition of the vehicle to give a 0.1% (w/v) suspension. The resulting 0.1% (w/v) suspension was diluted with the vehicle to give a 0.03% (w/v) suspension.
Compound 6 was stirred with the addition of the vehicle to give a 0.1% (w/v) suspension. The resulting 0.1% (w/v) a suspension was diluted with the vehicle to give a 0.03% (w/v) suspension.
Compound 7 was stirred with the addition of the vehicle to give a 0.1% (w/v) suspension.
as §9
EVO6 was stirred with the addition of the vehicle to give a 0.03% (w/v) solution, which was for comparison in the test for Compounds 5, 6 and 7. After preparation, it was refrigerated.
1) Each test sample (2.5 μL/eye) was instilled into both eyes of 8-month-old C57BL/6J mice with a Pipetman once per day (around 13:30) for 14 days.
as §2, §3, §4, §5
as §6, with “8” for “10”
as §7, §8

Japanese White rabbit = test: Ocular irritation test-2 (McDonald-Shadduck method); design: key to Irritation Score of anterior segment of the eye: Discharge / Irritation Score of anterior segment of the eye: Anterior chamber flare / Irritation Score of anterior segment of the eye: Light reflex / Irritation Score of anterior segment of the eye: Iris / Irritation Score of anterior segment of the eye: Corneal opacity / Irritation Score of anterior segment of the eye: Corneal angiogenesis / Irritation Score of anterior segment of the eye: Corneal epithelial disorder / Irritation Score of anterior segment of the eye: Conjunctival hyperemia / Irritation Score of anterior segment of the eye: Conjunctival edema: —: No noteworthy findings; details: 50 μL/eye, 10 times at 30-minute intervals; for Irritation Score of anterior segment of the eye: Anterior chamber flare / Irritation Score of anterior segment of the eye: Conjunctival edema / Irritation Score of anterior segment of the eye: Corneal angiogenesis / Irritation Score of anterior segment of the eye: Corneal opacity / Irritation Score of anterior segment of the eye: Discharge / Irritation Score of anterior segment of the eye: Iris / Irritation Score of anterior segment of the eye: Light reflex / Irritation Score of anterior segment of the eye: Conjunctival hyperemia: 1 hour after the final instillation; for Irritation Score of anterior segment of the eye: Conjunctival hyperemia: scale +1 slight, +2 moderate, +3 severe; for Irritation Score of anterior segment of the eye: Corneal epithelial disorder: 3 hours after the final instillation
Experimental: A vehicle eye drop and 0.01% (w/v) and 0.1% (w/v) Compound 4 eye drops were prepared in the same manner as Preparation of Test sample in Pharmacological test-4.
The vehicle eye drop, and the 0.01% (w/v) and 0.1% (w/v) Compound 4 eye drops were each instilled into one eye of a Japanese White rabbit at a dose volume of 50 μL/eye with pipette 10 times at 30-minute intervals. One hour after the final instillation, ocular irritation of anterior segment of the eye was evaluated using a slit lamp according to the McDonald-Shadduck method. Observation for corneal epithelial disorder was conducted 3 hours after the final instillation.
The ocular irritation of anterior segment of the eye was scored according to the following criteria: • +1: slight; +2: moderate; +3: severe

[4] = all of the concentrations of 0.01%, 0.03% and 0.1%
[5] = concentrations of 0.03% and 0.1%

`OCCCCCC(S)CCS` (centres unmarked) [Compound 2, 6,8-Dimercaptooctan-1-ol] was tested, and the “Lens elasticity effect (in words)” value (C57BL/6J mice [1]; 0.03% sample group) was “potent elasticity improving effect” and the Lens elasticity improvement (C57BL/6J mice [1]; 0.03% sample) was 42.2 μm.

Work on `OCCCCCC1CCSS1` (centres unmarked) [Compound 3, 5-(1,2-Dithiolan-3-yl)pentan-1-ol] yielded a Lens elasticity improvement (C57BL/6J mice [1]; 0.01% sample) of 21.5 μm, a Lens elasticity improvement (C57BL/6J mice [1]; 0.03% sample) of 47.3 μm and a Lens elasticity improvement (C57BL/6J mice [1]; 0.1% sample) of 60.1 μm. For the same compound, the “Lens elasticity effect (in words)” value (C57BL/6J mice [1]; [4]) was “showed an elasticity improving effect” and the Lens elasticity improvement (C57BL/6J mice [2]; 0.03% sample) was 39.9 μm.

With `OCCCCC1CCSS1` (centres unmarked) [Compound 6, 4-(1,2-Dithiolan-3-yl)butan-1-ol] the Lens elasticity improvement (C57BL/6J mice [3]; 0.03% sample) was 40.0 μm, the Lens elasticity improvement (C57BL/6J mice [3]; 0.1% sample) was 58.9 μm and the “Lens elasticity effect (in words)” value (C57BL/6J mice [3]; [5]) was “potent elasticity improving effect”.

`OCCCCCCC1CCSS1` (centres unmarked) [Compound 5, 6-(1,2-Dithiolan-3-yl)hexan-1-ol] was tested, and the Lens elasticity improvement (C57BL/6J mice [3]; 0.03% sample) was 22.3 μm, the Lens elasticity improvement (C57BL/6J mice [3]; 0.1% sample) was 26.6 μm and the “Lens elasticity effect (in words)” value (C57BL/6J mice [3]; [5]) was “potent elasticity improving effect”.

With `OCCOCCC1CCSS1` (centres unmarked) [Compound 7, 2-[2-(1,2-Dithiolan-3-yl)ethoxy]ethan-1-ol] the “Lens elasticity effect (in words)” value (C57BL/6J mice [3]; 0.1% sample group) was “potent elasticity improving effect” and the Lens elasticity improvement (C57BL/6J mice [3]; 0.1% sample) was 41.4 μm.

`OCCCCC[C@@H]1CCSS1` [Compound 4] was tested, and the Lens elasticity improvement (C57BL/6J mice [2]; 0.01% sample) was 31.1 μm, the Lens elasticity improvement (C57BL/6J mice [2]; 0.03% sample) was 60.2 μm and the Lens elasticity improvement (C57BL/6J mice [2]; 0.1% sample) was 66.7 μm. The “Lens elasticity effect (in words)” value (C57BL/6J mice [2]; [4]) was “showed an elasticity improving effect”, the “Irritation in anterior segment of the eye (in words)” value (Japanese White rabbit; 0.01% (w/v) and 0.1% (w/v) eye drops) was “No irritation was observed” and the “Irritation Score of anterior segment of the eye: Anterior chamber flare” value (Japanese White rabbit; 0.01% eye drop) was “—”. The “Irritation Score of anterior segment of the eye: Conjunctival edema” value (Japanese White rabbit; 0.01% eye drop) was “—”, the “Irritation Score of anterior segment of the eye: Corneal angiogenesis” value (Japanese White rabbit; 0.01% eye drop) was “—” and the “Irritation Score of anterior segment of the eye: Corneal opacity” value (Japanese White rabbit; 0.01% eye drop) was “—”. For the same compound, the “Irritation Score of anterior segment of the eye: Discharge” value (Japanese White rabbit; 0.01% eye drop) was “—”, the “Irritation Score of anterior segment of the eye: Iris” value (Japanese White rabbit; 0.01% eye drop) was “—” and the “Irritation Score of anterior segment of the eye: Light reflex” value (Japanese White rabbit; 0.01% eye drop) was “—”. The “Irritation Score of anterior segment of the eye: Conjunctival hyperemia” value (Japanese White rabbit; 0.01% eye drop) was “—”, the “Irritation Score of anterior segment of the eye: Corneal epithelial disorder” value (Japanese White rabbit; 0.01% eye drop) was “—” and the “Irritation Score of anterior segment of the eye: Anterior chamber flare” value (Japanese White rabbit; 0.1% eye drop) was “—”. The “Irritation Score of anterior segment of the eye: Conjunctival edema” value (Japanese White rabbit; 0.1% eye drop) was “—”, the “Irritation Score of anterior segment of the eye: Corneal angiogenesis” value (Japanese White rabbit; 0.1% eye drop) was “—” and the “Irritation Score of anterior segment of the eye: Corneal opacity” value (Japanese White rabbit; 0.1% eye drop) was “—”. The “Irritation Score of anterior segment of the eye: Discharge” value (Japanese White rabbit; 0.1% eye drop) was “—”, the “Irritation Score of anterior segment of the eye: Iris” value (Japanese White rabbit; 0.1% eye drop) was “—” and the “Irritation Score of anterior segment of the eye: Light reflex” value (Japanese White rabbit; 0.1% eye drop) was “—”. The “Irritation Score of anterior segment of the eye: Conjunctival hyperemia” value (Japanese White rabbit; 0.1% eye drop) was “—” and the “Irritation Score of anterior segment of the eye: Corneal epithelial disorder” value (Japanese White rabbit; 0.1% eye drop) was “—”.
